Experimental data reported in the NIST ThermoML archive (doi:10.1021/je500513b).
± gives the expanded uncertainty stated by the source.

Test: mn = molality of the nth substance listed, in mol/kg
Conditions: 298.15 K, Pendant drop shape, m2 = 0

With `O` [water] + CCCCCCCCCCCC[N+](C)(C)CCCC[N+](C)(C)CCCCCCCCCCCC.[Br-].[Br-] the surface tension liquid-gas was 71.98 ± 2.4 mN/m.
